Results taken from paper PMC6409085, “Three odorant-binding proteins are involved in the behavioral response of Sogatella furcifera to rice plant volatiles” (PeerJ, 2019).
Several values for one entry are separate records, joined by “and”; a condition that tells them apart may be missing. Equal values may be shown once.

Experiments:
Experiment in all cases: biochemical
Assay type in all cases: binding
SfurOBP3 = SfurOBP3 (Sogatella furcifera, UniProt V5T818); details: for Fluorescence competitive binding assay, fluorescence intensity: OBP3, three replicate columns
SfurOBP3, sequence (V5T818 entry or part of it): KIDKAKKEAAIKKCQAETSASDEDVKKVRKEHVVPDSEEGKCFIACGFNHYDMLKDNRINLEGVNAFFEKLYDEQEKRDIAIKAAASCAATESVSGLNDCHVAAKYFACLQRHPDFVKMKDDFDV
Procedure: (§1) Thirty-six rice odorants ([He et al., 2014]; [Wang et al., 2017]) and 1-N-phenyl-naphthylamine (1-NPN) were purchased from Sigma-Aldrich (St Louis, MO, USA). These odorants and 1-NPN were dissolved in high-performance liquid chromatography (HPLC) purify grade methanol for 1.0 mM as work solution.
(§2) Fluorescence competitive binding assays were performed on Tecan Spark 10M (Tecan Group Ltd., Männedorf, Switzerland) with the F96 Black ELIAS Plate (Sangon) ([Khuhro et al., 2017]; [Liu et al., 2017]). The solutions were excited at 337 nm and emission spectra were recorded between 390 and 490 nm. First, to test the binding constants of 1-NPN to the SfurOBPs, a 2.0 µM solution of protein in 50 mM Tris-HCl (pH = 7.4) was titrated with 1 mM 1-NPN to achieve virous concentrations. Next, the competitive binding of each odorant was measured using the 1-NPN as fluorescent reporter and odorant as competitor. The concentrations of protein and 1-NPN were both 2.0 µM, the odorant added after protein and 1-NPN added into the well of ELIAS Plate for 2 min. The final concentrations of each competitor were 2, 4, 6, 8, 10, 12, 14, 16, 18 and 20 µM. After 2 min of odorant added, the fluorescence intensity was measured and recorded. The volume of mixed solution in each well was maintained at 250 µL. Each interaction was performed in triplicates.
(§3) GraphPad Prism 7.0 software (GraphPad Software, Inc., La Jolla, CA, USA) was used to calculated and generated the binding constants (K1−NPN) of 1-NPN to SfurOBPs and relative Scatchard plots ([Ban et al., 2003]; [Li et al., 2016]). Dissociation constant (Ki) of each odorant to SfurOBP was computed from the corresponding IC50 value (the half maximal inhibitory concentration), using the following equation: Ki=[IC50]/(1 + [1-NPN]/K1−NPN), where [1-NPN] is the free concentration of 1-NPN and K1−NPN is the dissociation constant of the complex protein/1-NPN.

SfurOBP11 = SfurOBP11 (Sogatella furcifera, UniProt V5T6E3)
SfurOBP11, sequence (V5T6E3 entry or part of it): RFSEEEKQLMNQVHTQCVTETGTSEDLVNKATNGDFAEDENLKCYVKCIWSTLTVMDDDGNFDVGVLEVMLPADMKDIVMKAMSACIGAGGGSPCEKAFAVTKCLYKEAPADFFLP
Procedure: as §1, §2, §3

SfurOBP2 = SfurOBP2 (Sogatella furcifera, UniProt V5T759)
SfurOBP2, sequence (V5T759 entry or part of it): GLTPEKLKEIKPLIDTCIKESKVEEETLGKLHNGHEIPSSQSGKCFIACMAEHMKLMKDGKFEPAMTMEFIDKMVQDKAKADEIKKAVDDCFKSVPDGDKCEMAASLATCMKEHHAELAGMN
Procedure: as §1, §2, §3

SfurOBP1 = SfurOBP1 (Sogatella furcifera, UniProt V5T8N5); details: for Fluorescence competitive binding assay, fluorescence intensity: OBP1, three replicate columns
SfurOBP1, sequence (V5T8N5 entry or part of it): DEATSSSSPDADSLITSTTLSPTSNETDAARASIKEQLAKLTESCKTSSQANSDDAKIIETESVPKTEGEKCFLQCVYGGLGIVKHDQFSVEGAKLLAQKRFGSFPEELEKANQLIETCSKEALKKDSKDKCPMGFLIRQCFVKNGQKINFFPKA
Procedure: as §1, §2, §3

In the case of `O=C(c1ccccc1)c1ccccc1` [benzophenone], the IC50 (SfurOBP3) is reported as > 20 µM, the “Fluorescence competitive binding assay, fluorescence intensity” value (SfurOBP3; ligand concentration 2) is reported as 66323 and 67865 and 69406 and the “Fluorescence competitive binding assay, fluorescence intensity” value (SfurOBP3; ligand concentration 4) is reported as 72270 and 71733 and 72815. The “Fluorescence competitive binding assay, fluorescence intensity” value (SfurOBP3; ligand concentration 6) was 57537 and 56825 and 55208, the “Fluorescence competitive binding assay, fluorescence intensity” value (SfurOBP3; ligand concentration 8) was 58199 and 53071 and 55635 and the “Fluorescence competitive binding assay, fluorescence intensity” value (SfurOBP3; ligand concentration 10) was 54477 and 51518 and 50551. For the same compound, the “Fluorescence competitive binding assay, fluorescence intensity” value (SfurOBP3; ligand concentration 12) was 55084 and 52185 and 53632, the “Fluorescence competitive binding assay, fluorescence intensity” value (SfurOBP3; ligand concentration 14) was 52805 and 53281 and 53058 and the “Fluorescence competitive binding assay, fluorescence intensity” value (SfurOBP3; ligand concentration 16) was 41260 and 41464 and 41332. For the same compound, the “Fluorescence competitive binding assay, fluorescence intensity” value (SfurOBP3; ligand concentration 18) was 39853 and 41331 and 40577, the “Fluorescence competitive binding assay, fluorescence intensity” value (SfurOBP3; ligand concentration 20) was 39610 and 40773 and 38426 and the IC50 (SfurOBP11) was 16.3 µM. The “Fluorescence intensity, fluorescence competitive binding assay, OBP11” value (“Fluorescence intensity … OBP11” for short) (SfurOBP11; ligand concentration 2, replicate 1) was 21450, the “Fluorescence intensity … OBP11” value (SfurOBP11; ligand concentration 2, replicate 2) was 21005 and the “Fluorescence intensity … OBP11” value (SfurOBP11; ligand concentration 2, replicate 3) was 21027. The “Fluorescence intensity … OBP11” value (SfurOBP11; ligand concentration 4, replicate 1) was 20588, the “Fluorescence intensity … OBP11” value (SfurOBP11; ligand concentration 4, replicate 2) was 20654 and the “Fluorescence intensity … OBP11” value (SfurOBP11; ligand concentration 4, replicate 3) was 20719. The “Fluorescence intensity … OBP11” value (SfurOBP11; ligand concentration 6, replicate 1) was 19889, the “Fluorescence intensity … OBP11” value (SfurOBP11; ligand concentration 6, replicate 2) was 20401 and the “Fluorescence intensity … OBP11” value (SfurOBP11; ligand concentration 6, replicate 3) was 19317. For the same compound, the “Fluorescence intensity … OBP11” value (SfurOBP11; ligand concentration 8, replicate 1) was 19997, the “Fluorescence intensity … OBP11” value (SfurOBP11; ligand concentration 8, replicate 2) was 20308 and the “Fluorescence intensity … OBP11” value (SfurOBP11; ligand concentration 8, replicate 3) was 18308. For the same compound, the “Fluorescence intensity … OBP11” value (SfurOBP11; ligand concentration 10, replicate 1) was 18532, the “Fluorescence intensity … OBP11” value (SfurOBP11; ligand concentration 10, replicate 2) was 18946 and the “Fluorescence intensity … OBP11” value (SfurOBP11; ligand concentration 10, replicate 3) was 17435. The “Fluorescence intensity … OBP11” value (SfurOBP11; ligand concentration 12, replicate 1) was 17719, the “Fluorescence intensity … OBP11” value (SfurOBP11; ligand concentration 12, replicate 2) was 18881 and the “Fluorescence intensity … OBP11” value (SfurOBP11; ligand concentration 12, replicate 3) was 17057. For the same compound, the “Fluorescence intensity … OBP11” value (SfurOBP11; ligand concentration 14, replicate 1) was 16744, the “Fluorescence intensity … OBP11” value (SfurOBP11; ligand concentration 14, replicate 2) was 17392 and the “Fluorescence intensity … OBP11” value (SfurOBP11; ligand concentration 14, replicate 3) was 16199. The “Fluorescence intensity … OBP11” value (SfurOBP11; ligand concentration 16, replicate 1) was 16069, the “Fluorescence intensity … OBP11” value (SfurOBP11; ligand concentration 16, replicate 2) was 15955 and the “Fluorescence intensity … OBP11” value (SfurOBP11; ligand concentration 16, replicate 3) was 16012. The “Fluorescence intensity … OBP11” value (SfurOBP11; ligand concentration 18, replicate 1) was 16341, the “Fluorescence intensity … OBP11” value (SfurOBP11; ligand concentration 18, replicate 2) was 15453 and the “Fluorescence intensity … OBP11” value (SfurOBP11; ligand concentration 18, replicate 3) was 16084. The “Fluorescence intensity … OBP11” value (SfurOBP11; ligand concentration 20, replicate 1) was 15275, the “Fluorescence intensity … OBP11” value (SfurOBP11; ligand concentration 20, replicate 2) was 14432 and the “Fluorescence intensity … OBP11” value (SfurOBP11; ligand concentration 20, replicate 3) was 14489. The IC50 (SfurOBP2) was > 20 µM, the “Fluorescence competitive binding assay, OBP2 (raw fluorescence reading)” value (SfurOBP2; ligand concentration 2 (unit not given), replicate column 1 of 3) was 16222 and the “Fluorescence competitive binding assay, OBP2 (raw fluorescence reading)” value (SfurOBP2; ligand concentration 2 (unit not given), replicate column 2 of 3) was 16950. For the same compound, the “Fluorescence competitive binding assay, OBP2 (raw fluorescence reading)” value (SfurOBP2; ligand concentration 2 (unit not given), replicate column 3 of 3) was 16565, the “Fluorescence competitive binding assay, OBP2 (raw fluorescence reading)” value (SfurOBP2; ligand concentration 4 (unit not given), replicate column 1 of 3) was 15645 and the “Fluorescence competitive binding assay, OBP2 (raw fluorescence reading)” value (SfurOBP2; ligand concentration 4 (unit not given), replicate column 2 of 3) was 17125. For the same compound, the “Fluorescence competitive binding assay, OBP2 (raw fluorescence reading)” value (SfurOBP2; ligand concentration 4 (unit not given), replicate column 3 of 3) was 16794, the “Fluorescence competitive binding assay, OBP2 (raw fluorescence reading)” value (SfurOBP2; ligand concentration 6 (unit not given), replicate column 1 of 3) was 16160 and the “Fluorescence competitive binding assay, OBP2 (raw fluorescence reading)” value (SfurOBP2; ligand concentration 6 (unit not given), replicate column 2 of 3) was 16241. The “Fluorescence competitive binding assay, OBP2 (raw fluorescence reading)” value (SfurOBP2; ligand concentration 6 (unit not given), replicate column 3 of 3) was 16073, the “Fluorescence competitive binding assay, OBP2 (raw fluorescence reading)” value (SfurOBP2; ligand concentration 8 (unit not given), replicate column 1 of 3) was 14263 and the “Fluorescence competitive binding assay, OBP2 (raw fluorescence reading)” value (SfurOBP2; ligand concentration 8 (unit not given), replicate column 2 of 3) was 14653. The “Fluorescence competitive binding assay, OBP2 (raw fluorescence reading)” value (SfurOBP2; ligand concentration 8 (unit not given), replicate column 3 of 3) was 15131, the “Fluorescence competitive binding assay, OBP2 (raw fluorescence reading)” value (SfurOBP2; ligand concentration 10 (unit not given), replicate column 1 of 3) was 13747 and the “Fluorescence competitive binding assay, OBP2 (raw fluorescence reading)” value (SfurOBP2; ligand concentration 10 (unit not given), replicate column 2 of 3) was 14449. The “Fluorescence competitive binding assay, OBP2 (raw fluorescence reading)” value (SfurOBP2; ligand concentration 10 (unit not given), replicate column 3 of 3) was 15134, the “Fluorescence competitive binding assay, OBP2 (raw fluorescence reading)” value (SfurOBP2; ligand concentration 12 (unit not given), replicate column 1 of 3) was 12905 and the “Fluorescence competitive binding assay, OBP2 (raw fluorescence reading)” value (SfurOBP2; ligand concentration 12 (unit not given), replicate column 2 of 3) was 13209. For the same compound, the “Fluorescence competitive binding assay, OBP2 (raw fluorescence reading)” value (SfurOBP2; ligand concentration 12 (unit not given), replicate column 3 of 3) was 14417, the “Fluorescence competitive binding assay, OBP2 (raw fluorescence reading)” value (SfurOBP2; ligand concentration 14 (unit not given), replicate column 1 of 3) was 11252 and the “Fluorescence competitive binding assay, OBP2 (raw fluorescence reading)” value (SfurOBP2; ligand concentration 14 (unit not given), replicate column 2 of 3) was 12436. The “Fluorescence competitive binding assay, OBP2 (raw fluorescence reading)” value (SfurOBP2; ligand concentration 14 (unit not given), replicate column 3 of 3) was 12979, the “Fluorescence competitive binding assay, OBP2 (raw fluorescence reading)” value (SfurOBP2; ligand concentration 16 (unit not given), replicate column 1 of 3) was 11787 and the “Fluorescence competitive binding assay, OBP2 (raw fluorescence reading)” value (SfurOBP2; ligand concentration 16 (unit not given), replicate column 2 of 3) was 11767. The “Fluorescence competitive binding assay, OBP2 (raw fluorescence reading)” value (SfurOBP2; ligand concentration 16 (unit not given), replicate column 3 of 3) was 11673, the “Fluorescence competitive binding assay, OBP2 (raw fluorescence reading)” value (SfurOBP2; ligand concentration 18 (unit not given), replicate column 1 of 3) was 12436 and the “Fluorescence competitive binding assay, OBP2 (raw fluorescence reading)” value (SfurOBP2; ligand concentration 18 (unit not given), replicate column 2 of 3) was 11331. For the same compound, the “Fluorescence competitive binding assay, OBP2 (raw fluorescence reading)” value (SfurOBP2; ligand concentration 18 (unit not given), replicate column 3 of 3) was 11969, the “Fluorescence competitive binding assay, OBP2 (raw fluorescence reading)” value (SfurOBP2; ligand concentration 20 (unit not given), replicate column 1 of 3) was 11423 and the “Fluorescence competitive binding assay, OBP2 (raw fluorescence reading)” value (SfurOBP2; ligand concentration 20 (unit not given), replicate column 2 of 3) was 12242. The “Fluorescence competitive binding assay, OBP2 (raw fluorescence reading)” value (SfurOBP2; ligand concentration 20 (unit not given), replicate column 3 of 3) was 11724, the IC50 (SfurOBP1) was > 20 µM and the “Fluorescence competitive binding assay, fluorescence intensity” value (SfurOBP1; ligand concentration 2 (μM)) was 4924 and 4810 and 4695. For the same compound, the “Fluorescence competitive binding assay, fluorescence intensity” value (SfurOBP1; ligand concentration 4 (μM)) was 5262 and 5281 and 5299, the “Fluorescence competitive binding assay, fluorescence intensity” value (SfurOBP1; ligand concentration 6 (μM)) was 5268 and 5717 and 5292 and the “Fluorescence competitive binding assay, fluorescence intensity” value (SfurOBP1; ligand concentration 8 (μM)) was 5360 and 5130 and 5580. For the same compound, the “Fluorescence competitive binding assay, fluorescence intensity” value (SfurOBP1; ligand concentration 10 (μM)) was 5344 and 5432 and 5519, the “Fluorescence competitive binding assay, fluorescence intensity” value (SfurOBP1; ligand concentration 12 (μM)) was 5178 and 5515 and 5347 and the “Fluorescence competitive binding assay, fluorescence intensity” value (SfurOBP1; ligand concentration 14 (μM)) was 5173 and 5557 and 5365. The “Fluorescence competitive binding assay, fluorescence intensity” value (SfurOBP1; ligand concentration 16 (μM)) was 5828 and 4931 and 5380, the “Fluorescence competitive binding assay, fluorescence intensity” value (SfurOBP1; ligand concentration 18 (μM)) was 5476 and 5297 and 5257 and the “Fluorescence competitive binding assay, fluorescence intensity” value (SfurOBP1; ligand concentration 20 (μM)) was 5039 and 5512 and 5595.
